We go through five compounds from article PMC10146604, “The Balance between Hydrophobicity/Aromaticity and Positively Charged Residues May Influence the Cell Penetration Ability” (Pharmaceutics, 2023).

The test system of this series is EBC-1 human lung squamous carcinoma cells. Put plainly: Cellular uptake by flow cytometry. The series is classed as cell-based. To be noted: 90 min, 37 °C, trypsinization; for cellular uptake (in words) / cellular uptake relative to the control octaarginine (Cf-Arg8): 5 µM peptide, serum-free medium; for cellular uptake (in words): compared with Cf-Arg8; for cellular uptake relative to the control octaarginine (Cf-Arg8): flow cytometry fluorescence intensity normalized to Cf-Arg8. The protocol:
For the examination of the internalization of the peptides, 10^5 cultured EBC-1 cells per well were plated on 24-well plates. The cells were incubated for 24 h at 37 °C then they were treated with peptides at different concentrations for 90 min in a serum-free medium. In the negative control the cells were treated with a serum-free medium. After the incubation, the peptide solutions were removed and 100 µL trypsin (0.25%) was added for 5–10 min to remove membrane bound peptides and detach the adherent cells from the plates. The activity of trypsin was terminated by the addition of 900 µL HPMI buffer (glucose, NaHCO3, NaCl, HEPES, KCl, MgCl2, CaCl2, Na2HPO4∙2H2O) containing 10% fetal bovine serum, and the cells were transferred from the plates to FACS-tubes for measurement. The cells were centrifuged at 216× g at 4 °C for 5 min and the supernatant was removed. The cells were resuspended in 250 µL HPMI, and the fluorescence intensity of the cells was quantified using flow cytometry (BD LSR II, BD Bioscience, San Jose, CA, USA). The data were analyzed with FACSDiva 5.0 software (BD Bioscience, San Jose, CA, USA).
The cellular uptake of the peptides was determined using flow cytometry on EBC-1 human lung squamous carcinoma cells. The peptides were added to the cells at a concentration of 5 µM for 90 min at 37 °C. Selected constructs were used to study the concentration dependence at 0.125, 1.25 and 2.5 µM with 90 min treatment times. When evaluating the measurements data, the fluorescence of cells treated with peptides was corrected with the autofluorescence of cells without peptide treatment. The toxicity of the peptide conjugates was determined by comparing the live and dead cells ratio during the flow cytometry analysis.
In general terms: A flow cytometer gives signals particle by particle.

Peptide text beside a SMILES is read from it. * marks the point of attachment. 5FAM = O=C1OC2(c3ccc(O)cc3Oc3cc(O)ccc32)c2ccc(C(=O)*)cc21; Dabcyl = CN(C)c1ccc(N=Nc2ccc(C(=O)*)cc2)cc1

Take `CN(C)c1ccc(N=Nc2ccc(C(=O)NCCCC[C@H](NC(=O)[C@H](CCCNC(=N)N)NC(=O)[C@H](CCCNC(=N)N)NC(=O)[C@H](CCCNC(=N)N)NC(=O)[C@H](CCCNC(=N)N)NC(=O)[C@H](CCCNC(=N)N)NC(=O)[C@H](CCCNC(=N)N)NC(=O)c3ccc4c(c3)C(=O)OC43c4ccc(O)cc4Oc4cc(O)ccc43)C(N)=O)cc2)cc1` [Cf-(Arg)6-Lys(Dabcyl)]: the “cellular uptake (in words)” value (EBC-1 cells, flow cytometry) is listed as “surprisingly poor cellular uptake”. The “cellular uptake compared with octaarginine at low concentrations (in words)” value (EBC-1 cells, 0.125, 1.25 and 2.5 µM peptide, flow cytometry) is reported as “significantly decreased uptake”.

Take `CN(C)c1ccc(N=Nc2ccc(C(=O)NCc3ccc(C(=O)N[C@@H](CCCNC(=N)N)C(=O)N[C@@H](CCCNC(=N)N)C(=O)N[C@@H](CCCNC(=N)N)C(=O)N[C@@H](CCCNC(=N)N)C(=O)N[C@@H](CCCNC(=N)N)C(=O)N[C@@H](CCCNC(=N)N)C(=O)N[C@@H](CCCNC(=N)N)C(=O)N[C@@H](CCCNC(=N)N)C(=O)N[C@@H](CCCCNC(=O)c4ccc5c(c4)C(=O)OC54c5ccc(O)cc5Oc5cc(O)ccc54)C(N)=O)cc3)cc2)cc1` [Dabcyl-AMBA-(Arg)8-Lys(Cf)]: where the note is “EBC-1 cells, 1.25 µM peptide, flow cytometry”, the “cellular uptake relative to Cf-Arg8” value is listed as ~ 6 times. For the same compound, where the note is “EBC-1 cells, 2.5 µM peptide, flow cytometry”, the “cellular uptake relative to octaarginine” value is 30 times. For the same compound, the “cellular uptake relative to the control octaarginine (Cf-Arg8)” value (EBC-1 cells) is recorded as ~ 8 times.

With `CN(C)c1ccc(N=Nc2ccc(C(=O)N[C@@H](CCCNC(=N)N)C(=O)N[C@@H](CCCNC(=N)N)C(=O)N[C@@H](CCCNC(=N)N)C(=O)N[C@@H](CCCNC(=N)N)C(=O)N[C@@H](CCCCNC(=O)c3ccc4c(c3)C(=O)OC43c4ccc(O)cc4Oc4cc(O)ccc43)C(N)=O)cc2)cc1` [Dabcyl-(Arg)4-Lys(Cf)] (Dabcyl-RRRRK(5FAM)-NH2), the “cellular uptake (in words)” value (EBC-1 cells, flow cytometry) is “lower cellular uptake than octaarginine”.

Consider `CN(C)c1ccc(N=Nc2ccc(C(=O)N[C@@H](CCCNC(=N)N)C(=O)N[C@@H](CCCNC(=N)N)C(=O)N[C@@H](CCCNC(=N)N)C(=O)N[C@@H](CCCNC(=N)N)C(=O)N[C@@H](CCCNC(=N)N)C(=O)N[C@@H](CCCNC(=N)N)C(=O)N[C@@H](CCCNC(=N)N)C(=O)N[C@@H](CCCCNC(=O)c3ccc4c(c3)C(=O)OC43c4ccc(O)cc4Oc4cc(O)ccc43)C(N)=O)cc2)cc1` [Dabcyl-(Arg)7-Lys(Cf)], for which the “cellular uptake relative to the control octaarginine (Cf-Arg8)” value (EBC-1 cells) was determined as 6 times.

On to `CN(C)c1ccc(N=Nc2ccc(C(=O)N[C@@H](CCCNC(=N)N)C(=O)N[C@@H](CCCNC(=N)N)C(=O)N[C@@H](CCCNC(=N)N)C(=O)N[C@@H](CCCNC(=N)N)C(=O)N[C@@H](CCCNC(=N)N)C(=O)N[C@@H](CCCNC(=N)N)C(=O)N[C@@H](CCCCNC(=O)c3ccc4c(c3)C(=O)OC43c4ccc(O)cc4Oc4cc(O)ccc43)C(N)=O)cc2)cc1` [Dabcyl-(Arg)6-Lys(Cf)], for which the “cellular uptake relative to the control octaarginine (Cf-Arg8)” value (EBC-1 cells) is given as 6.5 times.
